From patent publication US4956294A, “Culture of Streptoverticillium synroense for producing an antibacterial” (Merck & Co., Inc., priority 1989, dated 1990)
In brackets after ≈: the same amount, converted by molar mass.

How the values were obtained:
E. coli TEM 2+ 4351 [1] = test: Agar dilution, antagonist-free medium; conditions: Escherichia coli, 20 h
[2] = tested on: Pseudomonas aeruginosa 979; test: Inhibition zone, agar plate; assay type: cell-based; conditions: 15λ, read-out: Inhibition Zone Diameter
Ser. marcescens 2840 = test: Agar dilution, antagonist-free medium; conditions: Serratia marcescens, 2840, 20 h
[3] = tested on: B. fragilis Clind^r, Fox^r, Tet^r 4360; test: Anaerobic agar dilution, Wilkens-Chalgren agar; assay type: cell-based; conditions: Bacteroides fragilis, 48 h
C. perfringens 3508 = test: microbe, parasite or virus in culture; assay type: cell-based; conditions: Clostridium perfringens, 3508, 48 h
[4] = tested on: Actinomyces naeslundii 4053; test: Anaerobic agar dilution, Wilkens-Chalgren agar; assay type: cell-based; conditions: Actinomyces naeslundii, 4053, 48 h
[5] = tested on: Bacteroides fragilis Met^r . Pen^r 4324; test: Anaerobic agar dilution, Wilkens-Chalgren agar; assay type: cell-based; conditions: 48 h
K. pneumoniae 4005 = test: Agar dilution, trypticase soy agar; conditions: Klebsiella pneumoniae, 4005, 20 h
Eubacterium limosum 3344 = test: Anaerobic agar dilution, Wilkens-Chalgren agar; assay type: cell-based; conditions: inoculum 10^6 cfu/spot, 35° C., 48 hours
Procedure: (a) Wilkens-Chalgren agar was used instead of antagonist-free medium (Roche);
(b) The inoculum/spot was about 10^6 instead of about 10^4 ;
(c) The incubation period was for 48 hours, not 24 hours; and
(d) Incubations were performed under anaerobic conditions.

[6] = tested on: Veillonella alcalescens 1952; test: Anaerobic agar dilution, Wilkens-Chalgren agar; assay type: cell-based; conditions: Veillonella parvula, 1952, 48 h
B. fragilis Pen^r 3214 = test: Anaerobic agar dilution, Wilkens-Chalgren agar; assay type: cell-based; conditions: Bacteroides fragilis, 48 h
E. coli DC2 4353 = test: Agar dilution, antagonist-free medium
Sarcina lutea 1101 (934) = test: Inhibition zone, agar plate; assay type: cell-based; conditions: Micrococcus luteus, 15λ, read-out: Inhibition Zone Diameter
Aspergillus niger 442 = test: Inhibition zone, agar plate; assay type: cell-based; conditions: 15λ, read-out: Inhibition Zone Diameter
[7] = tested on: Prot. mirabilis Gm^r 2830; test: Agar dilution, trypticase soy agar; conditions: Proteus mirabilis, 20 h
Pasteurella = test: Combined therapy with erythromycin in infected mice; conditions: L-654,040 combined with erythromycin, Pasteurella infection
[8] = tested on: Proteus vulgaris 2112 (episome); test: Inhibition zone, agar plate; assay type: cell-based; conditions: read-out: Inhibition Zone Diameter
B. ovatus Pen^r 3248 = test: Anaerobic agar dilution, Wilkens-Chalgren agar; assay type: cell-based; conditions: Bacteroides ovatus, 48 h
C. perfringens 3512 = test: microbe, parasite or virus in culture; assay type: cell-based; conditions: Clostridium perfringens, 3512, 48 h
Proteus mirabilis 3126 = test: Inhibition zone, agar plate; assay type: cell-based
[9] = tested on: Bifidobacterium dentium Fox^r 4427; test: Anaerobic agar dilution, Wilkens-Chalgren agar; assay type: cell-based; conditions: 48 h
[10] = tested on: B. fragilis NCCLS control strain 4419; test: Anaerobic agar dilution, Wilkens-Chalgren agar; assay type: cell-based; conditions: Bacteroides fragilis, 48 h
[11] = tested on: Propionibacterium acnes 2249; test: Anaerobic agar dilution, Wilkens-Chalgren agar; assay type: cell-based; conditions: Cutibacterium acnes, 2249, 48 h
E. coli TEM 2+ 4351 [12] = test: Agar dilution, trypticase soy agar; conditions: Escherichia coli, 20 h
[13] = tested on: S. aureus Gm^r Meth^r 4310; test: Agar dilution, trypticase soy agar; conditions: Staphylococcus aureus, 20 h
Sal. typhimurium 3860 = test: Agar dilution, trypticase soy agar; conditions: Salmonella enterica, 20 h
[14] = tested on: Xanthomonas vesicatoria 815; test: Inhibition zone, agar plate; assay type: cell-based; conditions: 15λ, read-out: Inhibition Zone Diameter
[15] = tested on: Corynebacterium pseudodiph. 261 (9742); test: Inhibition zone, agar plate; assay type: cell-based; conditions: read-out: Inhibition Zone Diameter
K. pneumoniae K1+ 4354 = test: Agar dilution, trypticase soy agar; conditions: Klebsiella pneumoniae, 20 h
Ent. cloacae P99- 2647 = test: Agar dilution, antagonist-free medium; conditions: Enterobacter cloacae, P992647, 20 h
C. perfringens 2237 = test: microbe, parasite or virus in culture; assay type: cell-based; conditions: Clostridium perfringens, 2237, 48 h
E. coli 2891 = test: Agar dilution, trypticase soy agar; conditions: Escherichia coli, 2891, 20 h
Escherichia coli 1418 = test: Inhibition zone, agar plate; assay type: cell-based; conditions: 15λ, read-out: Inhibition Zone Diameter
C. perfringens 3511 = test: microbe, parasite or virus in culture; assay type: cell-based; conditions: Clostridium perfringens, 3511, 48 h
[16] = tested on: Streptococcus faecium 2820; test: Inhibition zone, agar plate; assay type: cell-based; conditions: Enterococcus faecium, 15λ, read-out: Inhibition Zone Diameter
[17] = tested on: Fusobacterium mortiferum Fox^r 3345; test: Anaerobic agar dilution, Wilkens-Chalgren agar; assay type: cell-based; conditions: 48 h
[18] = tested on: Ps. aeruginosa RPL11+ 3350; test: Agar dilution, trypticase soy agar; conditions: Pseudomonas aeruginosa, 20 h

## C[C@H](CNC(=O)[C@H]1N=C(c2cccc(O)c2O)O[C@@H]1C)C(=O)N[C@@H]1CCCN(O)C1=O [L-654,040, 2-(2,3-dihydroxyphenyl)-4,5-dihydro-N-[3-[(1-hydroxy-2-oxo-3(R)-piperidinyl)-amino]-2(R)-methyl-3-oxopropyl]-5R-methyl-4S-oxazolecarboxamide]
E. coli TEM 2+ 4351 [1]
  MIC: > 256 µg/mL
[2]; 0.5 mg/ml in distilled H2O
  zone of inhibition at 500 µg/mL: 0 mm
[2]; 2 mg/ml in distilled H2O
  zone of inhibition at 2000 µg/mL: 0 mm
Ser. marcescens 2840
  MIC: > 256 µg/mL
[3]
  MIC: > 128 µg/mL
C. perfringens 3508
  MIC: 64 µg/mL (≈ 147 µM)
[4]
  MIC: 128 µg/mL (≈ 295 µM)
[5]
  MIC: 128 µg/mL (≈ 295 µM)
K. pneumoniae 4005
  MIC: > 128 µg/mL
Eubacterium limosum 3344
  MIC: 128 µg/mL (≈ 295 µM)
[6]
  MIC: > 128 µg/mL
B. fragilis Pen^r 3214
  MIC: > 128 µg/mL
E. coli DC2 4353; E. coli permeability mutant
  relative activity of parent and acetyl derivative: equal activity
  sensitivity of strain: sensitive
E. coli DC2 4353; Escherichia coli, DC24353, 20 h
  MIC: 32 µg/mL (≈ 73.7 µM)
Sarcina lutea 1101 (934); 0.5 mg/ml in distilled H2O
  zone of inhibition at 500 µg/mL: 12 mm
Sarcina lutea 1101 (934); 2 mg/ml in distilled H2O
  zone of inhibition at 2000 µg/mL: 17 mm
Aspergillus niger 442; 0.5 mg/ml in distilled H2O
  zone of inhibition at 500 µg/mL: 0 mm
Aspergillus niger 442; 2 mg/ml in distilled H2O
  zone of inhibition at 2000 µg/mL: 0 mm
[7]
  MIC: > 128 µg/mL
Pasteurella
  efficacy of combined therapy versus erythromycin alone: slightly more effective than erythromycin alone but not to a degree considered to be synergistic
[8]
  zone of inhibition at 500 µg/mL: 16 mm
  zone of inhibition at 2000 µg/mL: 28 mm
B. ovatus Pen^r 3248
  MIC: > 128 µg/mL
C. perfringens 3512
  MIC: 64 µg/mL (≈ 147 µM)
Proteus mirabilis 3126; Proteus mirabilis, 3126, read-out: Inhibition Zone Diameter
  zone of inhibition at 500 µg/mL: 24 mm
Proteus mirabilis 3126; Proteus mirabilis, 3126, 2 mg/ml in distilled H2O, 15λ, read-out: Inhibition Zone Diameter
  zone of inhibition at 2000 µg/mL: 25 mm
[9]
  MIC: > 128 µg/mL
[10]
  MIC: > 128 µg/mL
[11]
  MIC: 128 µg/mL (≈ 295 µM)
E. coli TEM 2+ 4351 [12]
  MIC: > 128 µg/mL
[13]
  MIC: 128 µg/mL (≈ 295 µM)
Sal. typhimurium 3860
  MIC: > 128 µg/mL
[14]; 0.5 mg/ml in distilled H2O
  zone of inhibition at 500 µg/mL: 0 mm
[14]; 2 mg/ml in distilled H2O
  zone of inhibition at 2000 µg/mL: 0 mm
[15]; 2 mg/ml in distilled H2O, 15λ
  zone of inhibition at 2000 µg/mL: 33 mm
[15]
  zone of inhibition at 500 µg/mL: 28 mm
K. pneumoniae K1+ 4354
  MIC: > 128 µg/mL
Ent. cloacae P99- 2647
  MIC: > 256 µg/mL
C. perfringens 2237
  MIC: 128 µg/mL (≈ 295 µM)
E. coli 2891
  MIC: > 128 µg/mL
Escherichia coli 1418; 0.5 mg/ml in distilled H2O
  zone of inhibition at 500 µg/mL: 0 mm
Escherichia coli 1418; 2 mg/ml in distilled H2O
  zone of inhibition at 2000 µg/mL: 13 mm
C. perfringens 3511
  MIC: 64 µg/mL (≈ 147 µM)
[16]; 0.5 mg/ml in distilled H2O
  zone of inhibition at 500 µg/mL: 0 mm
[16]; 2 mg/ml in distilled H2O
  zone of inhibition at 2000 µg/mL: 0 mm
[17]
  MIC: > 128 µg/mL
[18]
  MIC: > 128 µg/mL
